From ChEMBL document CHEMBL1201862, “PubChem BioAssay data set” (2004)
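1) Cells in 96-well plates. 2) Compound, 48 h, 5 concentrations. 3) Linear interpolation between surrounding doses. 4) Unreached endpoint = highest concentration. GI50 marks 50% less growth.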 The source made the active and inactive calls. No stated cut-off is given here; in the data, active = GI50 up to about 1.1 µM and inactive = higher.

How the values were obtained:
Experiment in all cases: NCI tumour cell line growth inhibition, 48 h
HCC 2998 = tested on: HCC 2998
SW-620 = tested on: SW-620
BT-549 = tested on: BT-549
NCI-H460 = tested on: NCI-H460
HT-29 = tested on: HT-29
PC-3 = tested on: PC-3
HL-60 = tested on: HL-60
K562 = tested on: K562
SK-OV-3 = tested on: SK-OV-3
CCRF-CEM = tested on: CCRF-CEM
T47D = tested on: T47D
LOX IMVI = tested on: LOX IMVI
SF-539 = tested on: SF-539
OVCAR-3 = tested on: OVCAR-3
COLO 205 = tested on: COLO 205
SF-295 = tested on: SF-295
MCF7 = tested on: MCF7
DU-145 = tested on: DU-145
EKVX = tested on: EKVX
786-0 = tested on: 786-0
MDA-MB-435 = tested on: MDA-MB-435
IGROV-1 = tested on: IGROV-1
SR = tested on: SR
HCT-116 = tested on: HCT-116
SF-268 = tested on: SF-268
RXF 393 = tested on: RXF 393
NCI-H23 = tested on: NCI-H23
HOP-92 = tested on: HOP-92
KM12 = tested on: KM12
SK-MEL-2 = tested on: SK-MEL-2
HCT-15 = tested on: HCT-15
OVCAR-5 = tested on: OVCAR-5
SK-MEL-28 = tested on: SK-MEL-28
UO-31 = tested on: UO-31
UACC-257 = tested on: UACC-257
M14 = tested on: M14
NCI-H226 = tested on: NCI-H226
OVCAR-8 = tested on: OVCAR-8
MDA-N = tested on: MDA-N
MOLT-4 = tested on: MOLT-4
NCI-H522 = tested on: NCI-H522
RPMI-8226 = tested on: RPMI-8226
HOP-62 = tested on: HOP-62
OVCAR-4 = tested on: OVCAR-4
CAKI-1 = tested on: CAKI-1
SK-MEL-5 = tested on: SK-MEL-5
ACHN = tested on: ACHN
A498 = tested on: A498
MDA-MB-231 = tested on: MDA-MB-231
Hs-578T = tested on: Hs-578T
U-251 = tested on: U-251
TK-10 = tested on: TK-10
NCI/ADR-RES = tested on: NCI/ADR-RES

With `Cn1c2nc3ccccc3c-2cc2ccccc21` [NEOCRYPTOLEPINE] the GI50 (HCC 2998) was 2.48 µM (inactive), the GI50 (SW-620) was 3.68 µM (inactive) and the GI50 (BT-549) was 3.19 µM (inactive). The GI50 (NCI-H460) was 2.38 µM (inactive), the GI50 (HT-29) was 2.51 µM (inactive) and the GI50 (PC-3) was 3.3 µM (inactive). For the same compound, the GI50 (HL-60) was 2.38 µM (inactive), the GI50 (K562) was 3.41 µM (inactive) and the GI50 (SK-OV-3) was 6.47 µM (inactive). For the same compound, the GI50 (CCRF-CEM) was 3.15 µM (inactive), the GI50 (T47D) was 4.81 µM (inactive) and the GI50 (LOX IMVI) was 3.27 µM (inactive). For the same compound, the GI50 (SF-539) was 3.05 µM (inactive), the GI50 (OVCAR-3) was 5.18 µM (inactive) and the GI50 (COLO 205) was 2.93 µM (inactive). The GI50 (SF-295) was 4.59 µM (inactive), the GI50 (MCF7) was 2.74 µM (inactive) and the GI50 (DU-145) was 6.82 µM (inactive). The GI50 (EKVX) was 2.28 µM (inactive), the GI50 (786-0) was 3.84 µM (inactive) and the GI50 (MDA-MB-435) was 4.2 µM (inactive). For the same compound, the GI50 (IGROV-1) was 2.7 µM (inactive) and the GI50 (SR) was 2.2 µM (inactive).

With `CC1=NN(c2cccc(Cl)c2)C2(SCC(=O)N2c2nc3ccccc3s2)C1=CC=Cc1ccccc1` (centres undefined) the GI50 (HCT-116) was 22.6 µM (inactive), the GI50 (SF-268) was 31.6 µM (inactive) and the GI50 (HCC 2998) was 32.3 µM (inactive). For the same compound, the GI50 (SW-620) was 26.3 µM (inactive), the GI50 (RXF 393) was 25.5 µM (inactive) and the GI50 (NCI-H23) was 27 µM (inactive). The GI50 (HOP-92) was 17.7 µM (inactive), the GI50 (NCI-H460) was 30.5 µM (inactive) and the GI50 (KM12) was 31.2 µM (inactive). The GI50 (SK-MEL-2) was 21.7 µM (inactive), the GI50 (HT-29) was 30.1 µM (inactive) and the GI50 (PC-3) was 29.7 µM (inactive). For the same compound, the GI50 (HCT-15) was 29.2 µM, the GI50 (HL-60) was 1.47 µM (inactive) and the GI50 (OVCAR-5) was 51.6 µM (inactive). For the same compound, the GI50 (K562) was 13.3 µM (inactive), the GI50 (SK-OV-3) was 27.4 µM (inactive) and the GI50 (SK-MEL-28) was 34.4 µM (inactive). For the same compound, the GI50 (UO-31) was 23.6 µM (inactive), the GI50 (UACC-257) was 36.9 µM (inactive) and the GI50 (M14) was 32.1 µM (inactive). For the same compound, the GI50 (CCRF-CEM) was 3.4 µM (inactive), the GI50 (T47D) was 34.4 µM (inactive) and the GI50 (NCI-H226) was 53 µM (inactive). For the same compound, the GI50 (OVCAR-8) was 35.6 µM (inactive), the GI50 (MDA-N) was 34.1 µM (inactive) and the GI50 (MOLT-4) was 19.1 µM (inactive). For the same compound, the GI50 (LOX IMVI) was 35.3 µM (inactive), the GI50 (SF-539) was 44.1 µM (inactive) and the GI50 (OVCAR-3) was 39.6 µM (inactive). For the same compound, the GI50 (NCI-H522) was 26.7 µM (inactive), the GI50 (RPMI-8226) was 23 µM (inactive) and the GI50 (HOP-62) was 36.1 µM (inactive). For the same compound, the GI50 (OVCAR-4) was 37.8 µM (inactive), the GI50 (CAKI-1) was 31.1 µM (inactive) and the GI50 (SK-MEL-5) was 18.9 µM (inactive). The GI50 (SF-295) was 35.2 µM (inactive), the GI50 (MCF7) was 25.5 µM (inactive) and the GI50 (DU-145) was 21.3 µM (inactive). For the same compound, the GI50 (EKVX) was 54.2 µM (inactive), the GI50 (ACHN) was 22.3 µM (inactive) and the GI50 (786-0) was 35.2 µM (inactive). For the same compound, the GI50 (MDA-MB-435) was 31 µM (inactive), the GI50 (A498) was 20.7 µM (inactive) and the GI50 (MDA-MB-231) was 27.9 µM (inactive). The GI50 (IGROV-1) was 31.3 µM (inactive), the GI50 (Hs-578T) was 27.7 µM (inactive) and the GI50 (U-251) was 17.8 µM (inactive). For the same compound, the GI50 (TK-10) was 62.4 µM (inactive), the GI50 (NCI/ADR-RES) was 34.8 µM (inactive) and the GI50 (SR) was 16.4 µM (inactive).
